pKi: −log10 of the molar value. Where two headings read alike, the source gives them in different places.
Tests used:
[1] = Safety: treatment-emergent adverse events in study CL-0538; assay type: in vivo, healthy subjects; details: for TEAE dry mouth, subjects / TEAE headache, subjects: CL-0538; for number of TEAEs considered possibly related to the study drug / subjects with TEAEs considered possibly related to the study drug: investigator assessment
[2] = plasma
[3] = for CL/F lower in the presence of roxadustat: concomitant roxadustat vs statin alone; for increase of AUCinf / increase of Cmax: statin dosed concomitantly with roxadustat vs statin alone
[4] = Safety: treatment-emergent adverse events in study CL-0537; assay type: in vivo, healthy subjects; details: for TEAE headache, subjects / TEAE nasopharyngitis, subjects: CL-0537; for number of TEAEs considered related to the study drug / subjects with TEAEs considered related to the study drug: investigator assessment
clinical = details: human, in vivo; for AUC(0-inf): AUCinf
[5] = cited from earlier work
CYP2C8 = details: read-out: inhibition constant (Ki); in vitro; cited from earlier work
[6] = Safety and tolerability across the 3 studies; assay type: in vivo, healthy subjects; details: roxadustat 200 mg, observation periods of the 3 studies
[7] = for AUC(0-inf) / Cmax / half-life / Tmax / AUC(0-t): human, in vivo; for AUC(0-inf): AUCinf; for AUC(0-t): AUClast
[8] = Safety: treatment-emergent adverse events in study CL-0541; assay type: in vivo, healthy subjects
[9] = atorvastatin 40 mg + roxadustat 200 mg, concomitant
[10] = statin + roxadustat 200 mg (steady state), concomitant, plasma
[11] = statin + roxadustat / statin alone
[12] = statin alone, single oral dose, plasma
[13] = po, mean (SD), statin alone, single oral dose, plasma
[14] = 40 mg, mean (SD), simvastatin 40 mg alone, plasma
[15] = mean (SD), simvastatin administered 2 hours before roxadustat, plasma
[16] = mean (SD), simvastatin administered 4 hours after roxadustat, plasma
[17] = mean (SD), simvastatin administered 10 hours after roxadustat, plasma
[18] = median (min-max), simvastatin administered 2 hours before roxadustat, plasma
[19] = median (min-max), simvastatin administered 4 hours after roxadustat, plasma
[20] = median (min-max), simvastatin administered 10 hours after roxadustat, plasma
[21] = GLS mean for statin alone, statin alone
[22] = po, median (min-max), statin alone, single oral dose, plasma
[23] = simvastatin administered 2 hours before roxadustat
[24] = simvastatin administered 4 hours after roxadustat
[25] = simvastatin administered 10 hours after roxadustat

For `CC(C)c1c(C(=O)Nc2ccccc2)c(-c2ccccc2)c(-c2ccc(F)cc2)n1CC[C@@H](O)C[C@@H](O)CC(=O)O` [Atorvastatin], the “TEAE dry mouth, subjects” value [1] was 0.0%, the “TEAE headache, subjects” value [1] was 4.2% and the “number of TEAEs considered possibly related to the study drug” value [1] was 2. For the same molecule, the “subjects with TEAEs considered possibly related to the study drug” value [1] was 2 (8.3%) n (%), the “tlag, mean (SD)” value [2, 9] was 0 (0.0) h and the “tlag, median (min-max)” value [2, 9] was 0 (0–0) h. The “tlag, mean (SD)” value ([2]; atorvastatin 40 mg alone) was 0 (0.0) h and the “tlag, median (min-max)” value ([2]; atorvastatin 40 mg alone) was 0 (0–0) h.
In the case of `CC(C)c1nc(N(C)S(C)(=O)=O)nc(-c2ccc(F)cc2)c1/C=C/[C@@H](O)C[C@@H](O)CC(=O)O` [Rosuvastatin], the “CL/F lower in the presence of roxadustat” value [3] was 66%, the “AUCinf, GLS mean for statin alone” value ([3]; human, in vivo) was 62 878 pg • h/mL and the “AUCinf, mean (SD)” value ([3]; human, in vivo) was 196 187 (95 367) pg • h/mL. The “AUCinf, median (min-max)” value ([3]; human, in vivo) was 177 873 (48 036–503 953) pg • h/mL, the “AUClast, mean (SD)” value ([3]; human, in vivo) was 192 156 (95 253) pg • h/mL and the “AUClast, median (min-max)” value ([3]; human, in vivo) was 173 565 (43 917–498 457) pg • h/mL. The “Cmax, mean (SD)” value ([3]; human, in vivo) was 22 980 (12 787) pg/mL, the “Cmax, median (min-max)” value ([3]; human, in vivo) was 19 811 (4059–58 463) pg/mL and the “tlag, mean (SD)” value ([3]; human, in vivo) was 0 (0.0) h. For the same molecule, the “tlag, median (min-max)” value ([3]; human, in vivo) was 0 (0–0) h, the “AUCinf, mean (SD)” value ([3]; human, in vivo, po) was 67 613 (33 727) pg • h/mL and the “AUCinf, median (min-max)” value ([3]; human, in vivo, po) was 57 187 (21 336–165 242) pg • h/mL. For the same molecule, the “AUClast, mean (SD)” value ([3]; human, in vivo, po) was 61 459 (34 796) pg • h/mL, the “AUClast, median (min-max)” value ([3]; human, in vivo, po) was 54 017 (0–159 223) pg • h/mL and the “Cmax, mean (SD)” value ([3]; human, in vivo, po) was 4939 (2991) pg/mL. For the same molecule, the “Cmax, median (min-max)” value ([3]; human, in vivo, po) was 4062 (0–13 775) pg/mL, the “tlag, mean (SD)” value ([3]; human, in vivo, po) was 0 (0.0) h and the “tlag, median (min-max)” value ([3]; human, in vivo, po) was 0 (0–0) h. For the same molecule, the “CL/F, mean (SD)” value [3, 10] was 63.4 (35.8) L/h, the “CL/F, median (min-max)” value [3, 10] was 56.22 (19.8–208) L/h and the “AUCinf, GLS mean ratio (%)” value [3, 11] was 292.55%. For the same molecule, the “Cmax, GLS mean ratio (%)” value [3, 11] was 447.33%, the “CL/F, mean (SD)” value [3, 12] was 185.3 (91.3) L/h and the “CL/F, median (min-max)” value [3, 12] was 174.9 (60.5–469) L/h. For the same molecule, the “tmax, median (min-max)” value [3, 12] was 4.00 (3.00–6.02) h, the “increase of AUCinf” value [3] was 2.93 fold and the “increase of Cmax” value [3] was 4.47 fold. The “TEAE headache, subjects” value [4] was 0.0%, the “TEAE nasopharyngitis, subjects” value [4] was 0.0% and the “number of TEAEs considered related to the study drug” value [4] was 2. The “subjects with TEAEs considered related to the study drug” value [4] was 2 (7.1%) n (%), the AUC(0-inf) (clinical; GLS mean for roxadustat + statin) was 0.184 µg·h/mL and the Cmax (clinical; GLS mean for statin alone) was 4.65 ng/mL. For the same molecule, the half-life (clinical; po, t1/2, mean (SD), statin alone, single oral dose, plasma) was 15.5 h, the half-life (clinical; po, t1/2, median (min-max), statin alone, single oral dose, plasma) was 15.2 h and the Tmax (clinical; [13]) was 3.9 h.
In the case of `Cc1nc(C(=O)NCC(=O)O)c(O)c2ccc(Oc3ccccc3)cc12` [Roxadustat], the “TEAE headache, subjects” value [4] was 7.1%, the “TEAE nasopharyngitis, subjects” value [4] was 0.0% and the “number of TEAEs considered related to the study drug” value [4] was 4. For the same molecule, the “subjects with TEAEs considered related to the study drug” value [4] was 4 (14.3%) n (%), the “terminal elimination half-life (t1/2)” value ([5]; after single-dose oral administration, healthy subjects) was “≈ 12 hours” and the “time to maximum plasma concentrations (Cmax) after dosing” value ([5]; fasted state) was ≤ 2 h. For the same molecule, the “time to reach maximum plasma concentration (Cmax)” value ([5]; oral, healthy subjects) was ≤ 2 h, the pKi (CYP2C8) was 4.80 and the “TEAE dry mouth, subjects” value [1] was 8.3%. For the same molecule, the “TEAE headache, subjects” value [1] was 4.2%, the “number of TEAEs considered possibly related to the study drug” value [1] was 3 and the “subjects with TEAEs considered possibly related to the study drug” value [1] was 2 (8.3%) n (%). The “deaths, serious TEAEs, AEs leading to discontinuation” value [6] was “did not result in any deaths, serious TEAEs, or AEs leading to discontinuation of study drug”.
For `CCC(C)(C)C(=O)O[C@H]1C[C@@H](C)C=C2C=C[C@H](C)[C@H](CC[C@@H](O)C[C@@H](O)CC(=O)O)[C@H]21` [Simvastatin acid], the AUC(0-inf) [7, 14] was 0.0243 µg·h/mL, the AUC(0-inf) ([7]; 40 mg, median (min-max), simvastatin 40 mg alone, plasma) was 0.0212 µg·h/mL and the Cmax [7, 14] was 2.12 ng/mL. It also gave a half-life ([7]; 40 mg, t1/2, mean (SD), simvastatin 40 mg alone, plasma) of 7 h, a half-life ([7]; 40 mg, t1/2, median (min-max), simvastatin 40 mg alone, plasma) of 6.36 h and a Tmax [7, 14] of 5.38 h. For the same molecule, the AUC(0-inf) ([7]; GLS mean for simvastatin alone, simvastatin alone) was 0.021 µg·h/mL, the AUC(0-inf) [7, 15] was 0.0487 µg·h/mL and the AUC(0-inf) [7, 16] was 0.0847 µg·h/mL. It also gave an AUC(0-inf) [7, 17] of 0.0594 µg·h/mL, an AUC(0-inf) [7, 18] of 0.041 µg·h/mL and an AUC(0-inf) [7, 19] of 0.0703 µg·h/mL. The AUC(0-inf) [7, 20] was 0.0505 µg·h/mL, the AUC(0-t) [7, 15] was 0.0447 µg·h/mL and the AUC(0-t) [7, 16] was 0.0828 µg·h/mL. It also gave an AUC(0-t) [7, 17] of 0.0574 µg·h/mL, an AUC(0-t) [7, 18] of 0.0382 µg·h/mL and an AUC(0-t) [7, 19] of 0.0689 µg·h/mL. It also gave an AUC(0-t) [7, 20] of 0.0498 µg·h/mL, a Cmax [7, 15] of 4.99 ng/mL and a Cmax [7, 16] of 12.8 ng/mL. For the same molecule, the Cmax [7, 17] was 7.13 ng/mL, the Cmax [7, 18] was 4.5 ng/mL and the Cmax [7, 19] was 11.6 ng/mL. It also gave a Cmax [7, 20] of 6.1 ng/mL, a half-life ([7]; t1/2, mean (SD), simvastatin administered 2 hours before roxadustat, plasma) of 4.6 h and a half-life ([7]; t1/2, mean (SD), simvastatin administered 4 hours after roxadustat, plasma) of 3.75 h. The half-life ([7]; t1/2, mean (SD), simvastatin administered 10 hours after roxadustat, plasma) was 4.16 h, the half-life ([7]; t1/2, median (min-max), simvastatin administered 2 hours before roxadustat, plasma) was 4.27 h and the half-life ([7]; t1/2, median (min-max), simvastatin administered 4 hours after roxadustat, plasma) was 3.45 h. The Tmax [7, 15] was 5.55 h, the Tmax [7, 16] was 4.01 h and the Tmax [7, 17] was 4.4 h. For the same molecule, the Tmax [7, 18] was 6 h, the Tmax [7, 20] was 4.01 h and the “AUClast, mean (SD)” value ([7]; simvastatin 40 mg alone, plasma) was 22.17 (11.98) ng • h/mL. The “tmax, median (min-max)” value ([7]; simvastatin administered 4 hours after roxadustat, plasma) was 4.00 (2.02–6.00) h, the “tlag, mean (SD)” value [3, 10] was 0.29 (0.35) h and the “tlag, median (min-max)” value [3, 10] was 0 (0–1.02) h. For the same molecule, the “tlag, mean (SD)” value [3, 12] was 0.47 (0.31) h, the “tlag, median (min-max)” value [3, 12] was 0.50 (0–1.00) h and the “increase of AUCinf” value [3] was 1.85 fold. The “increase of Cmax” value [3] was 2.76 fold, the AUC(0-inf) (clinical; [21]) was 0.0246 µg·h/mL and the Cmax (clinical; [21]) was 1.86 ng/mL. The Cmax (clinical; [13]) was 2.17 ng/mL, the Cmax (clinical; [22]) was 2.06 ng/mL and the half-life (clinical; po, t1/2, mean (SD)) was 6.28 h. It also gave a half-life (clinical; po, t1/2, median (min-max)) of 5.78 h, a Tmax (clinical; [13]) of 5.7 h and a Tmax (clinical; [22]) of 4.02 h. The half-life (clinical; t1/2, mean (SD)) was 5.98 h and the half-life (clinical; t1/2, median (min-max)) was 5.27 h.
In the case of `CCC(C)(C)C(=O)O[C@H]1C[C@@H](C)C=C2C=C[C@H](C)[C@H](CC[C@@H]3C[C@@H](O)CC(=O)O3)[C@H]21` [Simvastatin], the “lower mean CL/F” value ([7]; simvastatin 2 hours before roxadustat) was 42%, the “lower mean CL/F” value ([7]; simvastatin 4 hours after roxadustat) was 51% and the “lower mean CL/F” value ([7]; simvastatin 10 hours after roxadustat) was 46%. The “TEAE headache, subjects” value [8, 23] was 16.7%, the “TEAE incidence: Overall” value [8, 23] was 9 (37.5%) n (%) and the “total number of TEAEs” value [8, 23] was 12. The “TEAE headache, subjects” value [8, 24] was 4.2%, the “TEAE incidence: Overall” value [8, 24] was 6 (25.0%) n (%) and the “number of TEAEs of dizziness possibly related to the study drug” value [8, 24] was 1. For the same molecule, the “subjects with TEAE of dizziness possibly related to the study drug” value [8, 24] was 1 (4.2%) n (%), the “total number of TEAEs” value [8, 24] was 8 and the “TEAE headache, subjects” value [8, 25] was 8.3%. The “TEAE incidence: Overall” value [8, 25] was 4 (16.7%) n (%), the “number of TEAEs of dizziness possibly related to the study drug” value [8, 25] was 2 and the “subjects with TEAE of dizziness possibly related to the study drug” value [8, 25] was 1 (4.2%) n (%). The “total number of TEAEs” value [8, 25] was 9, the “TEAE headache, subjects” value ([8]; simvastatin administered alone) was 8.3% and the “TEAE incidence: Overall” value ([8]; simvastatin alone) was 5 (20.8%) n (%). The “total number of TEAEs” value ([8]; simvastatin alone) was 6, the “CL/F lower in the presence of roxadustat” value [3] was 40% and the “increase of Cmax” value [3] was 1.87 fold. For the same molecule, the “TEAE headache, subjects” value [4] was 0.0% and the “TEAE nasopharyngitis, subjects” value [4] was 0.0%.

From article PMC9306950 (Clinical Pharmacology in Drug Development, 2022)
